According to ChEMBL document CHEMBL4049425, “Fragment-Based, Structure-Enabled Discovery of Novel Pyridones and Pyridone Macrocycles as Potent Bromodomain and Extra-Terminal Domain (BET) Family Bromodomain Inhibitors” (J Med Chem, 2017):

What was measured:
Liver [1] = assay: Unbound intrinsic clearance in rat liver microsomes; format: ADME, microsome
Liver [2] = assay: Unbound intrinsic clearance in mouse liver microsomes; format: ADME, microsome
[3] = molecular target: T1, Bromodomain-containing protein 4 (Homo sapiens, UniProt O60885); assay: Inhibition of human N-terminal His6-tagged BRD4 BD1-BD2 (57 to 550 residues) expressed in EScherichia coli BL21(DE3) after 1 hr by Alexa-647-conjugated probe based TR-FRET assay
MX1 = assay: Antiproliferative activity against human MX1 cells after 72 hrs by Cell Titer Glo assay; format: functional, cell-based; conditions: MX1, 72 h
[4] = molecular target: T1, Bromodomain-containing protein 4; assay: Inhibition of BRD4 in human NCI-H1299 cells after 24 hrs by Bright-Glo luciferase reporter gene assay; format: cell-based
Liver [5] = assay: Unbound intrinsic clearance in human liver microsomes; format: ADME, microsome
Mus musculus [6] = assay: Fraction absorbed in portal vein of mouse at 1 mg/kg, iv or 1 mg/kg, po; format: ADME, organism-based; conditions: in vivo
Mus musculus [7] = assay: Unbound clearance in mouse at 1 mg/kg, iv or 1 mg/kg, po; format: ADME, organism-based; conditions: in vivo
[8] = Oral bioavailability in mouse at 1 mg/kg; format: ADME, organism-based; conditions: in vivo
Mus musculus [9] = assay: Unbound AUC in mouse at 1 mg/kg, po; format: ADME, organism-based; conditions: in vivo
[10] = Permeability of the compound by PAMPA; format: physicochemical; conditions: read-out: permeability
[11] = Lipophilicity, log D of the compound; format: physicochemical; conditions: octanol/water
[12] = Fraction unbound in mouse plasma at 1 uM after 4 hrs by LC-MS/MS analysis; format: ADME, cell-free

Row | SMILES | CL free (Liver [1]) | CL free (Liver [2]) | Ki [3] | EC50 (MX1) | EC50 [4] | CL free (Liver [5]) | FaFg (Mus musculus [6]) | CL free (Mus musculus [7]) | bioavailability [8] | fAUC (Mus musculus [9]) | Papp [10] | logD [11] | fraction unbound at 4 h, 1 µM [12]
1 | CCOc1cc(=O)n(C)cc1-c1cc(NS(=O)(=O)CC)ccc1Oc1ccccc1 | 3000 mL/min/kg | 91.7 mL/min/kg | 4.4 nM | 4.7 nM | 39 nM | 67 mL/min/kg | – | – | – | – | – | – | –
2 | COc1cc(=O)n(C)nc1-c1cc(NS(C)(=O)=O)ccc1Oc1ccccc1 | – | – | 140 nM | 730 nM | 230 nM | – | – | – | – | – | – | – | –
3 | CCS(=O)(=O)c1ccc2c(c1)-c1cn(C)c(=O)cc1OCCCCc1cc(Cl)ccc1O2 | 700 mL/min/kg | 883 mL/min/kg | 2 nM | 13 nM | 16 nM | 167 mL/min/kg | 0.44 | 167 mL/min/kg | 41% | 41 ng·h/mL | 7.6 ×10⁻⁶ cm/s | 2.8 to 4.3 | 0.04
4 | CCS(=O)(=O)Nc1ccc2c(c1)-c1cn(C)c(=O)cc1OCCCCCc1cc(Cl)ccc1O2 | 1830 mL/min/kg | 4670 mL/min/kg | 2.8 nM | 16 nM | 35 nM | 517 mL/min/kg | – | – | – | – | 0.89 ×10⁻⁶ cm/s | 4.3 | –
5 | CCS(=O)(=O)c1ccc2c(c1)-c1cn(C)c(=O)cc1OCCCCc1ccccc1O2 | 533 mL/min/kg | 867 mL/min/kg | 1.9 nM | 10 nM | 6.7 nM | 130 mL/min/kg | – | – | – | – | – | 2.8 to 4.3 | –
6 | COc1cc(=O)n(C)nc1-c1cc(N)ccc1Oc1ccccc1 | – | – | 1700 nM | 7200 nM | 2900 nM | – | – | – | – | – | – | – | –
7 | CCOc1cc(=O)n(C)cc1-c1cc(NS(=O)(=O)CC)ccc1Oc1ccc(OC(F)(F)F)cc1 | 3000 mL/min/kg | 1500 mL/min/kg | 5.5 nM | 62 nM | 210 nM | 95 mL/min/kg | – | – | – | – | – | – | –
8 | CCS(=O)(=O)Nc1ccc(Oc2ccc(F)cc2F)c(-c2cn(C)c(=O)cc2OCC(C)(C)O)c1 | – | – | 71 nM | 710 nM | 1100 nM | – | – | – | – | – | – | 2.8 to 4.3 | –
9 | COC(=O)C[C@@H]1N=C(c2ccc(Cl)cc2)c2c(sc(C)c2C)-n2c(C)nnc21 | – | – | 16.7 nM | – | – | – | – | – | – | – | – | – | –
10 | CCS(=O)(=O)Nc1ccc(Oc2ccc(F)cc2F)c(-c2cn(C)c(=O)cc2OCC(C)C)c1 | – | – | 7 nM | 140 nM | 180 nM | – | – | – | – | – | – | 2.8 to 4.3 | –
11 | CCNc1cc(=O)n(C)cc1-c1cc(NS(=O)(=O)CC)ccc1Oc1ccc(F)cc1F | – | – | 14 nM | 30 nM | 140 nM | – | – | – | – | – | – | 2.8 to 4.3 | –
12 | CCOc1cc(=O)n(C)cc1-c1cc(NS(=O)(=O)CC)ccc1Oc1ccc(C#N)cc1 | < 43.3 mL/min/kg | < 76.7 mL/min/kg | 16 nM | 53 nM | 55 nM | < 26.7 mL/min/kg | – | – | – | – | – | – | –
13 | COc1cc(=O)n(C)cc1-c1ccccc1Oc1ccccc1 | – | – | 450 nM | 1500 nM | 2800 nM | – | – | – | – | – | – | – | –
14 | CCS(=O)(=O)Nc1ccc(Oc2ccccc2)c(-c2cn(C)c(=O)cc2OC)c1 | – | – | 8.2 nM | 16 nM | 67 nM | – | – | – | – | – | – | – | –
15 | CCOc1cc(=O)n(C)cc1-c1cc(NS(=O)(=O)CC)ccc1Oc1ccc(Cl)cc1 | 88.3 mL/min/kg | < 148 mL/min/kg | 2.6 nM | 18 nM | 27 nM | < 50 mL/min/kg | – | – | – | – | – | – | –
16 | CCNC(=O)Nc1ccc(Oc2ccccc2)c(-c2nn(C)c(=O)cc2OC)c1 | – | – | 1900 nM | 13000 nM | 2800 nM | – | – | – | – | – | – | – | –

Row | SMILES | CL free (Liver [1]) | CL free (Liver [2]) | Ki [3] | EC50 (MX1) | EC50 [4] | CL free (Liver [5]) | FaFg (Mus musculus [6]) | CL free (Mus musculus [7]) | bioavailability [8] | fAUC (Mus musculus [9]) | Papp [10] | logD [11] | fraction unbound at 4 h, 1 µM [12]
17 | COc1cc(=O)n(C)nc1-c1cc(NC(C)=O)ccc1Oc1ccccc1 | – | – | 900 nM | 1300 nM | 370 nM | – | – | – | – | – | – | – | –
18 | CCS(=O)(=O)c1ccc2c(c1)-c1cn(C)c(=O)cc1OCCCc1ccccc1O2 | – | 900 mL/min/kg | 7.3 nM | 6.9 nM | 26 nM | 148 mL/min/kg | – | – | – | – | – | 2.8 to 4.3 | –
19 | Cn1cc2c(cc1=O)OCCCCc1cc(Cl)ccc1Oc1ccc(CS(C)(=O)=O)cc1-2 | 317 mL/min/kg | 1670 mL/min/kg | 3.8 nM | 19 nM | 18 nM | 267 mL/min/kg | 0.79 | 400 mL/min/kg | 68% | 29 ng·h/mL | 9.2 ×10⁻⁶ cm/s | 2.8 to 4.3 | 0.03
20 | CCS(=O)(=O)c1ccc2c(c1)-c1cn(C)c(=O)cc1OCCc1ccccc1O2 | 167 mL/min/kg | 333 mL/min/kg | 100 nM | 710 nM | 630 nM | 100 mL/min/kg | – | – | – | – | – | 2.8 to 4.3 | –
21 | CCS(=O)(=O)Nc1cnc2c(c1)-c1cn(C)c(=O)cc1OCCCCc1cc(F)cc(F)c1O2 | 75 mL/min/kg | 250 mL/min/kg | 0.8 nM | 4.2 nM | 6.4 nM | < 28.3 mL/min/kg | 0.49 | 317 mL/min/kg | 27% | 15 ng·h/mL | 9 ×10⁻⁶ cm/s | 2.8 to 4.3 | 0.12
22 | CCOC(=O)Nc1ccc(Oc2ccccc2)c(-c2nn(C)c(=O)cc2OC)c1 | – | – | 1100 nM | 4500 nM | 4900 nM | – | – | – | – | – | – | – | –
23 | CCOc1cc(=O)n(C)cc1-c1cc(CS(C)(=O)=O)ccc1Oc1ccc(F)cc1F | – | – | 120 nM | 140 nM | 230 nM | – | – | – | – | – | – | 2.8 to 4.3 | –
24 | CCOc1cc(=O)n(C)cc1-c1cc(NS(=O)(=O)CC)ccc1OC1CCC(F)(F)CC1 | 183 mL/min/kg | 167 mL/min/kg | 110 nM | 250 nM | 390 nM | 35 mL/min/kg | – | – | – | – | – | – | –
25 | CCS(=O)(=O)Nc1ccc(Oc2ccc(F)cc2F)c(-c2cn(C)c(=O)cc2OCCN2CCOCC2)c1 | – | – | 230 nM | > 3000 nM | 2200 nM | – | – | – | – | – | – | 2.8 to 4.3 | –
26 | CNc1cc(=O)n(C)nc1-c1ccccc1 | – | – | 160000 nM | – | – | – | – | – | – | – | – | – | –
27 | CCOc1cc(=O)n(C)cc1-c1cc(NS(=O)(=O)CC)cnc1Oc1ccc(F)cc1F | – | – | 8.7 nM | 32 nM | 45 nM | – | – | – | – | – | – | 2.8 to 4.3 | –
28 | CCS(=O)(=O)Nc1ccc(Oc2ccc(F)cc2F)c(-c2cn(C)c(=O)cc2OCC(F)(F)F)c1 | – | – | 22 nM | 120 nM | 100 nM | – | – | – | – | – | – | 2.8 to 4.3 | –
29 | COc1cc(=O)n(C)cc1-c1cc(NS(C)(=O)=O)ccc1Oc1ccccc1 | – | – | 58 nM | 130 nM | 77 nM | – | – | – | – | – | – | – | –
30 | CCOc1cc(=O)n(C)cc1-c1cc(NS(=O)(=O)CC)ccc1Oc1ccc(F)cc1 | 167 mL/min/kg | < 98.3 mL/min/kg | 5.6 nM | 16 nM | 69 nM | < 33 mL/min/kg | – | – | – | – | – | – | –
31 | CCS(=O)(=O)Nc1ccc2c(c1)-c1cn(C)c(=O)cc1OCCCCc1cc(F)cc(F)c1O2 | 317 mL/min/kg | 700 mL/min/kg | – | – | – | 67 mL/min/kg | – | – | – | 8 ng·h/mL | 6.8 ×10⁻⁶ cm/s | 2.8 to 4.3 | 0.03
32 | CCOc1cc(=O)n(C)cc1-c1cc(NS(=O)(=O)CC)ccc1Oc1cccnc1 | < 53.3 mL/min/kg | < 53.3 mL/min/kg | 17 nM | 50 nM | 150 nM | < 31.7 mL/min/kg | – | – | – | – | – | – | –
